Assays:
[1] = tested on: receptor tyrosine kinases inhibited by the parent compound; design: method as in Mendel et al, 2000; settings: ref Mendel et al, 2000; cited from earlier work
[2] = Plasma pharmacokinetics of SU5416 and metabolites in Phase I patients (HPLC UV); type: in vivo, human; settings: plasma, patients
Description: Samples were taken prior to treatment infusion, 15 min into the infusion, at completion of the infusion and then at 5, 10, 20, 30, 45, 60, 120 and 240 min following the infusion. […] At the designated times, 4.0 ml of blood were collected into a lithium heparin tube, gently inverted and placed on ice to maintain the sample at 2–8°C. All samples were immediately centrifuged at 6000 r.p.m. at 4°C for 10 min, the supernatant divided between two 1.5 ml Nalgene cryovials and snap frozen in liquid nitrogen. Separated plasma samples were subsequently stored at −70°C until analysis.
Pharmacokinetic analysis was performed using a fully validated HPLC UV method ([Stopeck et al, 2002]). Plasma samples, standards (25–2000 ng ml^−1) and quality controls spiked with internal standards were extracted with acetonitrile. Following centrifugation, drying and reconstitution in 200 μl mobile phase, 20 μl were analysed by HPLC UV. Chromatography was carried out using a C18 analytical column, with a gradient mobile phase containing acetonitrile and 10 mM ammonium formate at pH 2.6. The flow rate was 0.8 ml min^−1 and the run-time 21 min. Detection was via UV absorption at a wavelength of 440 nm. The accuracy of the assay, reflected in relative error of measured concentration to theoretical (prepared) concentrations, was between 0.9 and 5.6% for all quality control samples.
Pharmacokinetic parameters were evaluated using WinNonLin Software®.

metabolite as proportion of the total [2]: 5.2%
SMILES: Cc1cc(CO)[nH]c1/C=C1\C(=O)Nc2ccccc21 [SU9838]
inhibitory activity for the receptor tyrosine kinases inhibited by the parent compound [1]: Neither metabolite shows inhibitory activity
distribution and clearance of metabolite [2]: large volume of distribution and rapid clearance
